Measurements reported in patent US20210187014A1 (The Regents of the University of Colorado, a body corporate, priority 2018, published 2021).

Experiments:
ATP-1 = target: T1, ATP-1 (Caenorhabditis elegans, UniProt Q9XXK1); experiment: Biotin-Ent binding to ATP-1 (in vivo pulldown and in vitro binding assay); set-up: species or system C. elegans; details: excess non-biotin labeled Ent
T1 construct: His; made in house; host or cells: E. coli (given only for the three ATP-1 segments)
Description: First, in an in vivo assay, worms were fed bacteria +/− Biotin-Ent and total protein extracts were isolated, followed by streptavidin-bead purification and SDS-PAGE. […] Just as the iron-free Biotin-Ent, iron-bound Biotin-Ent also bound the ATP-1 protein (FIG. 10B, C).
In vivo binding assay: Worms were allowed to grow with Ent-biotin (5 ug/ml) dietary supplementation, followed by streptavidin-bead IP. Western blot was performed to detect ATP-1, using an antibody against the mammalian ATP synthase a-subunit (Thermo Fisher 43-9800).
(§1) In vitro binding assay. (a) Ent-biotin pull-down of total proteins: Ent-biotin and streptavidin beads were used to pull down interacting proteins from worm total protein extracts (same method as that in initial screen for Ent-binding proteins). Western blots were performed to detect ATP-1 (Thermo Fisher 43-9800). […] The assay was then quenched with a standard 5×SDS-PAGE_loading buffer (reducing). Proteins were separated by SDS-PAGE and transferred to_nitrocellulose membranes. The membranes were blocked for 1 h with 5% BSA in Trisbuffered saline (TBS) with 0.1% Tween 20 (TBST) at room temperature, followed by incubation for 1 h with horseradish peroxidase streptavidin (Cell Signaling_Technology,3999S) in TBST. […] After IP, the amount of 55Fe was determined by liquid scintillation.

succinate dehydrogenase = experiment: Succinate dehydrogenase enzymatic activity in worms +/- Ent; type: in vivo, C. elegans; details: worms fed Ent-deficient food
Description: Enzymatic activity. Succinate Dehydrogenase (MAK197; Sigma) and aconitase (MAK051; Sigma) enzymatic activity were measured using the kits according to the manufacturer's protocol. […] After 48 hours culturing, worms were lysed in ice-cold conditions using the lysis buffer provided in the kit, supplemented with […]. Equal amounts of protein were used for the enzymatic activity assay.

germ-free (GF) mice = experiment: Growth of germ-free mice colonized with entF- E. coli, Ent in drinking water; type: in vivo; details: GF female mice colonized with entF- E. coli, drinking water pH 5.5
Description: As generally shown in FIG. 23, (A) Five-week old female germ-free (GF) mice were colonized with a single non-pathogenic E. coli (K12) strain, wild type or entF-(Ent-deficient E. coli). Mouse growth (weight gain) was measured for the following 4 weeks. […] Iron level was measured.

liposomes = experiment: Iron traffic across the lipid bilayer of synthetic liposomes +/- ATPSα; type: biochemical
Description: ATPSα (ATP-1 or ATP5A1) was added to the liposome by an established method. […] The Calcein AM dye was added to liposomes +/− ATPSα and the fluorescence intensity of the liposome was measured; (B) Liposomes were incubated with radiolabel ed Fe^3+ (''FeCl3) and the radioactivity (relative CPM) of the liposome was measured. Method (A) measures iron inside the liposome, since calcein AM is only inside.

ATP5A1 = target: T2, ATP5A1 (Homo sapiens, UniProt P25705); experiment: Biotin-Ent binding to ATP5A1 (pulldown from HEK293T cells and in vitro binding assay); details: excess, free Ent
T2 construct: His
T2 sequence (P25705 44-553): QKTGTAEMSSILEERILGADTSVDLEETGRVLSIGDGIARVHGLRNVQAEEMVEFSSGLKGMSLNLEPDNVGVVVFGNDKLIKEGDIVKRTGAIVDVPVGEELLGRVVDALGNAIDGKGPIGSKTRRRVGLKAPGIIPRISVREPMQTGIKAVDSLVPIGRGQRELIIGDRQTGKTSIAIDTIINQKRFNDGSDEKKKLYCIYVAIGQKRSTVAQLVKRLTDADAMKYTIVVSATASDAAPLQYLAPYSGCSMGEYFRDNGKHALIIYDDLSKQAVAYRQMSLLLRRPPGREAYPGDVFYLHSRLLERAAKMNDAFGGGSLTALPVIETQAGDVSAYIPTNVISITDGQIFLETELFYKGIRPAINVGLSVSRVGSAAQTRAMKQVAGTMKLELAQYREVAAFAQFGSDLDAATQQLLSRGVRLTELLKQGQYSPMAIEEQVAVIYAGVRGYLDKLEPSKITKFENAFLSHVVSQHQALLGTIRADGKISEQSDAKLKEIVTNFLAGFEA
Description: Sequence alignment indicates 78% identity between the ATP synthase a-subunits from C. elegans (ATP-1, Wormbase; SEQ ID NO. 7) and humans (ATP5A1, NCBI; SEQ ID NO. 8) (FIG. 11D). […] To test if this Ent-ATP-1 function is conserved in mammals, the present inventors repeated the prior described biotin-Ent pulldown assay (FIG. 3A) using total protein extracts from human HEK293T cells cultured +/− Biotin-Ent.
as §1, with “TBST. After four washes with changes every 15 min in TBST, the_biotinylated proteins were visualized by enhanced chemiluminescence (GE Healthcare,_RPN2232).” for “TBST.”

[1] = tested on: anemic mouse model (dietary anemia); experiment: Anemic mouse model (dietary anemia), Ent by oral gavage; type: in vivo; details: female mice on iron-deficient diet
Description: The inventors fed 3-week old female mice an iron-deficient diet (IDD) (or control diet) for 6 weeks to induce anemia (confirmed by hemoglobin measurement). […] As generally shown in FIGS. 20A-B, feeding IDD caused a drastic reduction of both hemoglobin and iron levels. […] A commercial kit (BioAssay system) was used to obtain hemoglobin level. Under normal conditions, ˜70% of the iron absorbed from the intestine is used to generate hemoglobin, and only a small percent may be stored in the liver or other somatic tissues if iron is in excess. Under anemic conditions, a great percentage of iron that has entered mitochondria (then bound to heme) may be funneled to erythropoiesis. Therefore, it was not unexpected to see little impact of Ent supplementation on liver iron level (iron storage).

C. elegans = experiment: Siderophore toxicity test: worm growth and mitochondrial morphology (mtGFP); type: in vivo; details: in vivo
Description: FIG. 8. Bacterial enterobactin promotes C. elegans development. […] (8E) The entA- and entF-mutant E. coli strains colonized the host gut as efficiently as the parental wild-type strain. (FIG. 8F) Cartoon diagram of feeding condition, microscope images and bar graph showing that neither pyoverdine nor ferrichrome caused obvious growth defects in worms fed heat-killed food plus wild-type, live E. coli. (FIG. 8G) Fluorescence microscopy of worms containing mtGFP under the same feeding condition as in (FIG. 8F). […] “n” =number of worms scored. Data are represented as mean±SEM. ***P<0.0001.

whole worm lysates = experiment: Affinity chromatography with immobilized Ent and mass spectrometry to identify Ent-binding proteins; set-up: species or system C. elegans; details: two independent experiments
Description: CTL-2 is a homolog of catalases that are known to bind iron. ATP-1 is the a-subunit of the mitochondrial ATP synthase that is not known for a role in iron biology (Junge and Nelson, 2015).
Isolation of Enterobactin-binding proteins by biotin-IP and LC-MS. Total proteins were extracted from mixed stage worms and then pre-cleaned three times by adding 100 ul Dynabeads® M-280 Streptavidin. Equal volumes of these total protein extracts were then separated to two tubes. Biotin-Ent (5 ug) was added into one tube for IP and Biotin alone (5 ug) was added to another tube as the control, both were incubated overnight at 4° C. After incubating with Dynabeads® M-280 Streptavidin for 2 hours, the beads were washed at least 3 times by 1mL PBS. PBS was then removed from the beads and 200 uL 0.1 M ammonium bicarbonate (ABC)/0.001% deoxycholic acid (DCA) was added. The samples were reduced using 5 mM (final) TCEP at 60° C. for 30 min and alkylated using 15 mM iodoacetamide at room temperature for 20 min. 0.5 ug of trypsin was added to each sample and incubated overnight. The samples were then acidified using 7 uL of formic acid. DCA was removed from the samples by phasetransfer using ethyl acetate. The samples were desalted using a Pierce C18 spin column, and dried using a speed vac. […]

T1 sequence (Q9XXK1 whole entry): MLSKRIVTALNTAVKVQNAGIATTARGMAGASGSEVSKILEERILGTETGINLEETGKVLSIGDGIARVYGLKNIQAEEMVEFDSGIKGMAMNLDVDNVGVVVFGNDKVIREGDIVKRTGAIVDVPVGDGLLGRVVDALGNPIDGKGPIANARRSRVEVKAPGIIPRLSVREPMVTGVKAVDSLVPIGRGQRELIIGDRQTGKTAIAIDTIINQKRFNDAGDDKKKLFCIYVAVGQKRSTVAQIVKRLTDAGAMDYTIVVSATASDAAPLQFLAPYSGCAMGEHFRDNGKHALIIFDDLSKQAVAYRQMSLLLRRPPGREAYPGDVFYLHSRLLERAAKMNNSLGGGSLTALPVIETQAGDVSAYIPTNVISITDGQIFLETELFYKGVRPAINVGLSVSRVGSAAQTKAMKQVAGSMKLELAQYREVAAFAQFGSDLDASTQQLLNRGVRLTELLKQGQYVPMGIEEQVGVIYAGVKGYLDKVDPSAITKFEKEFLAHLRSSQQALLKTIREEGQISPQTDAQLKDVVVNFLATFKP

## O=C(N[C@H]1COC(=O)[C@@H](NC(=O)c2cccc(O)c2O)COC(=O)[C@@H](NC(=O)c2cccc(O)c2O)COC1=O)c1cccc(O)c1O [Ent, enterobactin]
ATP-1
  competition of Biotin-Ent binding to ATP-1-His: outcompeted
Succinate dehydrogenase
  activity of succinate dehydrogenase: significantly increased
germ-free (GF) mice
  growth (weight gain): overcomes growth delay
liposomes; FeCl3 +/- Ent 1.5 uM
  level of iron inside the liposome (Calcein AM): clearly boosted
liposomes; radiolabeled FeCl3 +/- Ent 1.5 uM
  level of iron associated with the liposome (radioactivity): clearly boosted
ATP5A1
  competition of biotin-Ent binding to ATP5A1: effectively competed away
[1]; oral gavage
  iron level in the spleen: increased in the spleen
[1]; oral gavage once every two days for two weeks
  hemoglobin level: partially but significantly recovered
C. elegans
  mitochondrial morphology (mtGFP): did not disrupt mitochondrial morphology
Whole worm lysates
  candidate Ent-binding proteins captured: CTL-2 and ATP-1
